Source: PMC9597875 (Frontiers in Pharmacology, 2022)

Legend:
CYP2C8 = molecular target: T1, CYP2C8 (Homo sapiens, UniProt P10632); test: CYP2C8 activity inhibition assay in human liver microsomes (paclitaxel hydroxylation, LC-MS/MS); conditions: for IC50: IC50 CYP2C8, HLM, paclitaxel 5 µM
T1 sequence (P10632 1-490): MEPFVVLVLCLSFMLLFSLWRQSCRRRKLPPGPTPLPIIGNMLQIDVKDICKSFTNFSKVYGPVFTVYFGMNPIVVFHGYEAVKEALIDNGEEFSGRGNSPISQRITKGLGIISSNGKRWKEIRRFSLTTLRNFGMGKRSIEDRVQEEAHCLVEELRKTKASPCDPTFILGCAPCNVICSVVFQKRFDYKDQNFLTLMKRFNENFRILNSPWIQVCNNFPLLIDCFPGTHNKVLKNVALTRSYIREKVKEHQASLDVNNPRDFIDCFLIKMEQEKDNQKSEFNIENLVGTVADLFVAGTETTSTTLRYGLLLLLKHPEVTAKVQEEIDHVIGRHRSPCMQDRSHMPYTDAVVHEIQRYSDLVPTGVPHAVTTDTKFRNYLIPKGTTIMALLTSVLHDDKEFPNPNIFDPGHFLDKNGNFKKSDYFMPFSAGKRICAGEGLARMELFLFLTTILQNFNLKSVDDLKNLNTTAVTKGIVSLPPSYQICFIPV

CYP2D6 [1] = molecular target: T2, CYP2D6 (Homo sapiens, UniProt P10635); test: biochemical
T2 sequence (P10635 whole entry): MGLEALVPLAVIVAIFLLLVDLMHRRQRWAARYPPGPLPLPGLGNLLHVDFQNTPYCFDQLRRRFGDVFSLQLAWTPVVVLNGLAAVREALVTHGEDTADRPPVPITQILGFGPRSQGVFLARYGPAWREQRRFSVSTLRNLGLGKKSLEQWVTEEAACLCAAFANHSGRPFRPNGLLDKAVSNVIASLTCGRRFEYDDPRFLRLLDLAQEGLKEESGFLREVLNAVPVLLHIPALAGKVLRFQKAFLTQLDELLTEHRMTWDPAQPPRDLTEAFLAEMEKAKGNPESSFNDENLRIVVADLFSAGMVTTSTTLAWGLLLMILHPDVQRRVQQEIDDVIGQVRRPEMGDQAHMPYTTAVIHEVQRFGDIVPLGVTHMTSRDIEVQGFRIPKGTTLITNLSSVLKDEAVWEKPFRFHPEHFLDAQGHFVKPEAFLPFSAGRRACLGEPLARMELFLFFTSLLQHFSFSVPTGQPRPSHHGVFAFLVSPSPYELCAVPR

CYP3A4 = CYP3A4 (Homo sapiens, UniProt P08684); test: CYP3A4 activity inhibition assay in human liver microsomes (testosterone 6β-hydroxylation, LC-MS/MS)
Sequence of CYP3A4 (P08684 whole entry): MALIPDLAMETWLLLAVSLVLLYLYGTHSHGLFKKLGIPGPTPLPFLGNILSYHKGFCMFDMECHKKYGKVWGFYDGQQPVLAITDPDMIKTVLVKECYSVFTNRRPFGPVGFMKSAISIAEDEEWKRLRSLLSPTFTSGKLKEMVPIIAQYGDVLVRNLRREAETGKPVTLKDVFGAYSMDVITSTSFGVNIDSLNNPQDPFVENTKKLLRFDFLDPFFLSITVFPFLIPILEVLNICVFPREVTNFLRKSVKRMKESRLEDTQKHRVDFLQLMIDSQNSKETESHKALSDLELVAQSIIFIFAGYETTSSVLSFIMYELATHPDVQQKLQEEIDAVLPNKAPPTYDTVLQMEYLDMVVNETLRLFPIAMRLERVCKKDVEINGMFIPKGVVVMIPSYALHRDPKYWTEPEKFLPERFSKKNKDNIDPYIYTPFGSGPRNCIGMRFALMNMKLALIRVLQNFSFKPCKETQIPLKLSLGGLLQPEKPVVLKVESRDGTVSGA

CYP2D6 [2] = molecular target: T2, CYP2D6; conditions: HLM; as compared to quinidine

Row | Structure (SMILES) | Ki (CYP2C8) | inhibition of CYP2C8 (in words) (CYP2C8; HLM, remdesivir as compared to rosiglitazone) | IC50 (CYP2C8; remdesivir) | IC50 (CYP2D6 [1]) | Ki (CYP2D6 [1]) | IC50 (CYP3A4) | Ki (CYP3A4) | inhibition of CYP3A4 (in words) (CYP3A4; HLM, as compared to ketoconazole) | inhibition of CYP2D6 (in words) (CYP2D6 [2]) | IC50 (CYP2C8; positive control)
1 | CCC(CC)COC(=O)[C@H](C)N[P@](=O)(OC[C@H]1O[C@@](C#N)(c2ccc3c(N)ncnn23)[C@H](O)[C@@H]1O)Oc1ccccc1 [Remdesivir, remdesivir] | 0.134 µM | weak inhibition | 0.268 µM | 0.543 µM | 0.271 µM | 0.483 µM | 0.241 µM | moderate/weak inhibition | weak inhibition | –
2 | CN(CCOc1ccc(CC2SC(=O)NC2=O)cc1)c1ccccn1 (centres unmarked) [Rosiglitazone, rosiglitazone] | 1.6 µM | – | – | – | – | – | – | – | – | 3.28 µM
